Experimental data as given in ChEMBL document CHEMBL5728686, “MK2 inhibitors and uses thereof” (2021).

Biological target: MAP kinase-activated protein kinase 2 (Homo sapiens, UniProt P49137)
Assay: Kinase reactions were started with the addition of 40 μL of MK-2 enzyme and monitored every 71 seconds for 30-240 minutes at λex360/λem485 in a Synergy2, Synergy4 or Synergy H4 plate reader from BioTek (Winooski, Vt.). […] Initial velocity (0 minutes to +30 minutes) from each reaction was estimated from the slope of a plot of relative fluorescence units vs time (minutes) and normalized to the no enzyme and no inhibitor control groups for % Inhibition. The resulting % Inhibition values were then plotted against inhibitor concentration to estimate IC50 from log[Inhibitor] vs Response, Variable Slope model in GraphPad Prism from GraphPad Software (San Diego, Calif.).

Sequence of MAP kinase-activated protein kinase 2 (P49137 whole entry): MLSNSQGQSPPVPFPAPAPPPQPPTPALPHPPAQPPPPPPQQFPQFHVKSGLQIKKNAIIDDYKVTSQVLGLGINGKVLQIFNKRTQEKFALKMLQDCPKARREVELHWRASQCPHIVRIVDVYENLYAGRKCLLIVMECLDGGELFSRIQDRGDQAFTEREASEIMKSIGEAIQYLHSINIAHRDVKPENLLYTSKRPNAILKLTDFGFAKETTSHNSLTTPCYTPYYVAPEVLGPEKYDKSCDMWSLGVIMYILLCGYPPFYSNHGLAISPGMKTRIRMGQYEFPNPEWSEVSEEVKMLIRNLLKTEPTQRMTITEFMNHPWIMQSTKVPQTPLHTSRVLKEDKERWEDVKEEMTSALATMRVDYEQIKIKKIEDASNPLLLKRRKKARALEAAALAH

C=CC(=O)Nc1cc(NC(=O)c2ccc3sc4c(c3c2)NC[C@@H](C)NC4=O)ccc1C1CCN(C)CC1
EC50: < 100 nM
IC50: < 100 nM

C=CC(=O)N1CCOc2ccc(-c3cc4c(cn3)CCc3c-4[nH]c4c3C(=O)NCC4)cc21
IC50: < 100 nM

C=CC(=O)Nc1cc(-c2cc3c(ccc4c5c([nH]c43)CCC5=O)cn2)ccc1C
EC50: < 100 nM
IC50: < 100 nM
